Measurements: patent US12569515B2, “Gold-containing agents for the treatment of lung infections” (Aurovir Pharma GmbH, priority 2020, dated 2026)

Experiments:
[1] = target: SARS-CoV-2 spike protein / ACE2 receptor interaction (Severe acute respiratory syndrome coronavirus 2, UniProt P0DTC2); experiment: Inhibition of the spike/ACE2 interaction by ELISA; assay type: binding
CaLu-3 cells = experiment: Cytotoxicity in CaLu-3 cells (crystal violet, 24 hours); assay type: cell-based; conditions: for Cytotoxicity in CaLu-3 cells: concentrations of up to 100 μM, combinations with respect to AM or AG
Method: In order to determine the cytotoxicity, CaLu-3 cells were cultured in 96-well microtitre plates. The cell culture medium was replaced with fresh medium which contained the gold compounds in concentrations of 25, 50 or 100 μM and incubated for 24 hours at 37° C./5% CO2. Next, the remaining cells were photometrically determined using crystal violet stain (Victor X4 microplate reader). The quantity of cells in the treated samples was calculated as a percentage with respect to an untreated control.

[2] = target: SARS-CoV-2 3CL protease (Mpro) (Severe acute respiratory syndrome coronavirus 2, UniProt P0DTD1); experiment: Inhibition of SARS-CoV-2 protease 3CLpro; assay type: biochemical; conditions: 1 h preincubation at 37° C.
Method: 50 μL of the test substance solutions or pure HEPES buffer (positive control) was respectively added thereto and the resulting solutions were mixed and incubated for one hour at 37° C.

[3] = test system: bovine coronavirus (BCoV); assay type: cell-based
SARS-CoV-2 PLpro [4] = target: T1, SARS-CoV-2 PLpro (Severe acute respiratory syndrome coronavirus 2, UniProt P0DTD1); experiment: Inhibition of SARS-CoV-2 protease PLpro (fluorogenic substrate Z-Arg-Leu-Arg-Gly-Gly-AMC); assay type: biochemical; conditions: 1 h preincubation at 37° C.; for the mixture with respect to the quantity of aurothioglucose
T1 construct: SARS-CoV-2 protease Papain-Like Protease (PLpro)

SARS-CoV-2 PLpro [5] = target: T1, SARS-CoV-2 PLpro; experiment: Removal of zinc from PLpro (FluoZin-3 fluorescence); assay type: biochemical; conditions: 50 μM test compound, 500 nM PLpro, up to 90 minutes (FIG. 10)
Method: In addition to a cysteine in the catalytic centre of the enzyme, the protease Plpro contains further cysteines in a zinc binding domain which stabilise the structure and function of the enzyme. The removal of the bound zinc constitutes an interesting mechanism for the action of inhibitors for PLpro.
In order to establish whether the inhibitors are Zn-removing agents, the presence of the Zn^2+ cation in solution was determined as follows. The inhibitor compounds were prepared as stock solutions in DMSO, as stock solutions in water or DMSO and diluted one hundred-fold with HEPES buffer ([…], pH 7.5) to 100 μM concentrations. Volumes of 50 μL of SARSCoV-2 PLpro (Elabscience) in HEPES buffer or blank HEPES buffer (control for false positive results) were placed in the wells of a black 96-well microtitre plate (Nunclon, Nunc). Volumes of 50 μL of the inhibitor solutions or 1% DMSO in HEPES buffer (control) were added. […] The resulting solutions were mixed and the fluorescence emission was determined after 10 min, every 10 min over a period of 90 minutes, at 37° C. (λexc=485 nm, λem=535 nm); Victor X4 microtitre plate reader). The relative fluorescence was calculated by dividing the absolute fluorescence emission of the well which contained the inhibitor by the absolute fluorescence of the corresponding well which contained the enzyme but no inhibitor (control). […]

[6] = test system: mouse model for acute allergic asthma; experiment: Anti-inflammatory action in a mouse model for acute allergic asthma, intranasal application

Q: `CC(=O)N[C@@H](CS)C(=O)O` [N-acetylcysteine] was tested. Which remaining activity at 100 µM ([1]; 100 μM, N-acetylcysteine alone, read-out: Spike/ACE2 interaction remaining, % of control) did it give?
A: 97%

Q: `CC(=O)OC[C@H]1O[C@@H]([S-])[C@H](OC(C)=O)[C@@H](OC(C)=O)[C@@H]1OC(C)=O.CCP(CC)CC.[Au+]` [auranofin] was tested. Which “Quantity of cells, % of the untreated control” value (CaLu-3 cells; 25 μM, CaLu-3 cells) did it give?
A: < 20 % of the untreated control

Q: Which IC50 [2] does the source give for `OC[C@H]1O[C@H]([S-])[C@H](O)[C@@H](O)[C@@H]1O.[Au+]` [aurothioglucose] here?
A: 8.25 µM

Q: What about the “Reduction in the viral load” value ([3]; 256 μM aurothioglucose, preincubated 1 h with 100 TCID50 BCoV, MDBK cells, 12-48 hours) of the same compound?
A: 10 fold

Q: And the IC50 (SARS-CoV-2 PLpro [4])?
A: 7.03 µM

Q: And the “Affinity for the spike protein of SARS-CoV-2 virus” value [1]?
A: high affinity

Q: And the “Inhibition of the spike/ACE2 interaction” value ([1]; 20 μM aurothioglucose (FIG. 8))?
A: resulted in an inhibition

Q: And the “Cytotoxicity in CaLu-3 cells” value (CaLu-3 cells)?
A: no relevant cytotoxicity

Q: And the “Removal of zinc from PLpro” value (SARS-CoV-2 PLpro [5])?
A: comparable with the reference compound disulfiram

Q: What does the source list for `O=C(O)CC([S-])C(=O)O.[Au+]` (centres unmarked) [aurothiomalate]?
A: IC50 [2]: 22.9 µM; IC50 (SARS-CoV-2 PLpro [4]): 0.6 µM; Cytotoxicity in CaLu-3 cells (CaLu-3 cells): no relevant cytotoxicity

Q: Which “Viral load formed on adding favipiravir” value [3] does the source give for `NC(=O)c1nc(F)c[nH]c1=O` [favipiravir] here?
A: reduction in the viral load

Q: auroacetylcysteine was tested. Which “Total inflammatory cells in bronchial secretions, extent of respiratory tract inflammation, eosinophils and neutrophiles, inflammatory infiltrates in lung parenchyma” value ([6]; 10 mg/kg over 5 days) did it give?
A: reduced

Q: What about the “Inflammatory parameters peribronchially and in the parenchyma” value ([6]; 10 mg/kg, histology) of the same compound?
A: reduced

Q: What about the “Deaths in treatment group” value ([6]; AAC group, 5 mice) of the same compound?
A: one death

Q: What about the “Eosinophilic and neutrophilic granulocytes and lymphocytes” value ([6]; cell populations (FIG. 5)) of the same compound?
A: reduced

Q: What about the Macrophages ([6]; cell populations (FIG. 5)) of the same compound?
A: increased compared with dexamethasone

Q: And the “Total cell count in bronchoalveolar lavage” value ([6]; intranasal, compared with placebo and dexamethasone 1 mg/kg (FIG. 2))?
A: comparable with dexamethasone

Q: And the “Anti-inflammatory effect in the tissue” value ([6]; versus dexamethasone 1 mg/kg)?
A: comparable with that of dexamethasone
